In US7226892B2, “Herbicidal composition and use” (Durga Technologies ApS, priority 2003, dated 2007):

Experiments:
[1] = respiratory tract/lungs, eyes, skin; cited from earlier work
[2] = test system: mixed vegetation of grasses and weeds; experiment: Spraying of glycine solution onto mixed vegetation; format: in vivo; details: glycine alone, summary statement
Excerpt: A common squirt bottle delivering a fine spray was used for spraying the weeds.
A solution of 90 g of glycine+15 g of the surfactant “Witconol® SN 90” in 1 L of water was sprayed onto a mixed vegetation of grasses and weeds until the spray liquid dripped from the leaves, corresponding to 0.1 L/m^2.

Row | Compound | risk identification / classification as irritant [1] | herbicidal activity of glycine per se [2]
1 | O=C(O)CC(O)(CC(=O)O)C(=O)O [citric acid, Citric Acid Monohydrate, reference compound] | Irritates respiratory tract/lungs, irritates eyes, skin irritating | –
2 | NCC(=O)O [glycine, 2-aminoethanoic acid] | not classified as an irritant | no noticeable herbicidal activity
